# Test results as given in patent EP0973746B1, “SUBSTITUTED 3-CYANO QUINOLINES” (Wyeth Holdings Corporation, priority 1997, dated 1998).
# Where “and” joins values, the source holds several entries; their conditions need not be identical. Equal entries are not always repeated. Where two headings read alike, the source gives them in different places.
# How the values were obtained:
# [1] = biological target: recombinant human MEK 1 (MAPKK) and recombinant human ERK2 (MAPK); assay: Mitogen Activated Protein Kinase (MAPK) assay, two component coupled MEK 1 / ERK2; format: biochemical; conditions: separate entries for the same compound = evaluated more than one time;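 note: MEK 1-activated ERK2 phosphorylates MBP or Myc peptide with 33P-ATP, filter capture and scintillation counting, inhibitor preincubated with ERK2 30 min at 0 °C, inhibition relative to uninhibited control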
# [2] = biological target: T1, Kinase insert Domain containing Receptor (KDR: the catalytic domain of the VEGF receptor) (Homo sapiens, UniProt P35968); assay: Inhibition of Kinase insert Domain containing Receptor (KDR); format: biochemical;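 note: KDR phosphorylating a Glu:Tyr 4:1 copolymer with P32- or P33-labelled ATP, Mg++ and vanadate, read as acid-insoluble radiolabel, compared with compound-free reaction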
# T1 construct: KDR: the catalytic domain of the VEGF receptor
# T1 sequence (P35968 834-1162 limits assumed): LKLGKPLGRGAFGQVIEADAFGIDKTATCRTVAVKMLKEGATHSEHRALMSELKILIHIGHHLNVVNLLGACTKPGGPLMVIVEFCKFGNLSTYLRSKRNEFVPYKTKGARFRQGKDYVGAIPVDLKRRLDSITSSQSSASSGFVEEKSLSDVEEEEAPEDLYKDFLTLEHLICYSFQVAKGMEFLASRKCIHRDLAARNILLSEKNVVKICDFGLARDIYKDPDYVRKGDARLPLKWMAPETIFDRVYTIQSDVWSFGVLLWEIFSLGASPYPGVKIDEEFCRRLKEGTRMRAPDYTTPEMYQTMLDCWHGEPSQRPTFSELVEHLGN
# Experimental: In this standard pharmacological test procedure, KDR protein is mixed, in the presence or absence of a inhibitor compound, with a substrate peptide to be phosphorylated (a copolymer of glutamic acid and tyrosine, E:Y :: 4:1) and other cofactors such as Mg^++ and sodium vanadate (a protein tyrosine phosphatase inhibitor) in an appropriate buffer to maintain pH (7.2). ATP and a radioactive tracer (either P^32-or P^33- labeled ATP) is then add to initiate phosphorylation. After incubation, the radioactive phosphate associated with the acid-insoluble fraction of the assay mixture is then quantified as reflection of substrate phosphorylation.
# SKBR3 = assay: Inhibition of cancer cell growth as measured by cell number, SKBR3; format: cell-based, human; conditions: Table 8; for IC50: Homo sapiens;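 for all read-outs here: SK-BR-3 cells were selected as a line overexpressing HER2/neu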
# Text: (§1) The cell lines were chosen since they overexpressed epidermal growth factor receptor (EGFR) (i.e. A431) or HER2/neu (SKBR3), or had little to no expression of the these receptors (SW620, LOX, MCF7).
# SW620 = assay: Inhibition of cancer cell growth as measured by cell number, SW620; format: cell-based, human; conditions: Table 8; for IC50: Homo sapiens, SW-620, 48 h;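 for all read-outs here: SW620 was included as a cell line with little or no EGFR or HER2/neu expression, in contrast to receptor-overexpressing lines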
# Text: as §1
# A431 = assay: Inhibition of cancer cell growth as measured by cell number, A431; format: cell-based, human; conditions: Homo sapiens, A-431, 48 h, cell number, Sulforhodamine B, 48 hours exposure; Table 8; read-out: IC50 A431;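 note: human A431 line, picked because it overexpresses epidermal growth factor receptor (EGFR)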
# Text: as §1
# [3] = biological target: T2, His-tagged cytoplasmic domain of EGFR (Homo sapiens, UniProt P00533); assay: Inhibition of Epidermal Growth Factor Receptor Kinase (EGF-R) using recombinant enzyme; format: biochemical; conditions: recombinant enzyme; RR-SRC peptide; average of the number of tests; read-out: IC50;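 note: radiometric kinase assay measuring radiolabeled phosphate transfer from ATP onto the peptide tyrosine by scintillation counting, control is reaction without compound, background subtracted, IC50 from dose-response curve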
# T2 construct: containing the EGFR cDNA encoding amino acids 645 - 1186 preceded by Met-Ala-(His)6; made in house; host or cells: Sf9 cells, recombinant baculovirus vHcEGFR52
# T2 sequence (P00533 669-1210): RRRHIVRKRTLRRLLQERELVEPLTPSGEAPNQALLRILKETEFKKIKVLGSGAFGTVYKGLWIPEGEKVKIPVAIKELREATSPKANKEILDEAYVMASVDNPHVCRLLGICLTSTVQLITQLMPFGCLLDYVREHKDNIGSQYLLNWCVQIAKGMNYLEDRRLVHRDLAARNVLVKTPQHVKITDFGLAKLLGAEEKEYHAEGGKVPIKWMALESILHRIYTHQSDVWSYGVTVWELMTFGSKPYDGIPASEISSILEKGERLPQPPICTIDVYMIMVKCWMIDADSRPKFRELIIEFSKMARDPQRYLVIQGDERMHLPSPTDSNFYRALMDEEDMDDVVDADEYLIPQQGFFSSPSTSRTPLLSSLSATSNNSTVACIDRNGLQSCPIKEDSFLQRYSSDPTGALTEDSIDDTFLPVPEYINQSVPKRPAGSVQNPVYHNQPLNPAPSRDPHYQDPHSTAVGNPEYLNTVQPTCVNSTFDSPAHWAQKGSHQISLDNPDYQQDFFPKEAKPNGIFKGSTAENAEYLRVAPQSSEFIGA
# Experimental: The enzyme used in this assay is the His-tagged cytoplasmic domain of EGFR.
# Compounds to be evaluated were made into 10 mg/mL stock solutions in 100% dimethylsulfoxide (DMSO). Prior to experiment, stock solutions were diluted to 500 µM with 100% DMSO and then serially diluted to the desired concentration with HEPES buffer (30 mM HEPES pH 7.4).
# For the enzyme reaction, 10 µL of each inhibitor (at various concentrations) were added to each well of a 96-well plate. […] This was allowed to sit for 10 min on ice and was followed by the addition of 5 µl peptide (80 µM final conc.), 10µl of 4X Buffer (Table A), 0.25 µL ^33P-ATP and 12 µL H2O. The reaction was allowed to run for 90 min at room temperature and was followed by spotting the entire volume on to precut P81 filter papers. The filter discs were washed 2X with 0.5% phosphoric acid and radioactivity was measured using a liquid scintillation counter.
# The % inhibition of the test compound was determined for at least three different concentrations and the IC50 value was evaluated from the dose response curve. […] CPM(control) is in units of counts per minute and was a number expressing the amount of radiolabeled ATP (g-33P) incorporated into the RR-SRC peptide substrate by the enzyme after 90 minutes at room temperature in the absence of test compound as measured by liquid scintillation counting. The CPM values were corrected for the background counts produced by ATP in the absence of the enzymatic reaction. The IC50 values reported in TABLE 2 are averages of the number of tests conducted.
# MCF7 = assay: Inhibition of cancer cell growth as measured by cell number, MCF7; format: cell-based, human; conditions: Homo sapiens, MCF7, 48 h, cell number, Sulforhodamine B, 48 hours exposure; Table 8; read-out: IC50 MCF7;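 note: MCF7 was included as a line with little or no EGFR or HER2/neu expression, in contrast to the receptor-overexpressing lines of the panel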
# Text: as §1
# LOX = assay: Inhibition of cancer cell growth as measured by cell number, LOX; format: cell-based, human; conditions: Homo sapiens, LOX, 48 h, cell number, Sulforhodamine B, 48 hours exposure; Table 8; read-out: IC50 LOX;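 note: LOX cells served as a line with low or absent EGFR and HER2/neu expression, in contrast to receptor-overexpressing lines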
# Text: as §1
# [4] = pH 7.2, radioactive format, read-out: KDR IC50 (converted)
# [5] = cell number, Sulforhodamine B, 48 hours exposure
# [6] = SK-BR-3, cell number, Sulforhodamine B, 48 hours exposure, read-out: IC50 SKBR3
# [7] = cell number, Sulforhodamine B, 48 hours exposure, read-out: IC50 SW620
Molecule,IC50 [1],"IC50 [2, 4]",further results
"4-(4-Chloro-2-fluoro-phenylamino)-5,8-dimethoxy-quinoline-3-carbonitrile [Example 238]",> 100 µM,–,"KDR IC50 ([2]; pH 7.2, radioactive format): >30 µg/mL"
"COc1cc2c(Nc3cc(O)c(Cl)cc3F)c(C#N)cnc2cc1OCCN(C)C [Example 86, 4-(4-Chloro-2-fluoro-5-hydroxy-phenylamino)-7-(2-dimethylamino-ethoxy)-6-methoxy-quinoline-3-carbonitrile]",1.8 µM and 2 µM,6.96 µM,–
"COc1cc2c(Nc3cc(O)c(Cl)cc3F)c(C#N)cnc2cc1OCCN1CCOCC1 [Example 87, 4-(4-Chloro-2-fluoro-5-hydroxy-phenylamino)-6-methoxy-7-(2-morpholin-4-yl-ethoxy)-quinoline-3-carbonitrile]",–,6.34 µM,–
"CCOc1cc2c(Nc3ccc(C)c(O)c3)c(C#N)cnc2cc1OC [Example 97, 6-Ethoxy-4-(3-hydroxy-4-methylphenylamino)-7-methoxyquinoline-3-carbonitrile]",–,0.286 µM,–
COc1cc2ncc(C#N)c(Nc3ccc(Cl)cc3F)c2cc1OCCCN1CCOCC1 [Example 127],6 µM,–,IC50 [2]: 21.2 µM
COc1cc2ncc(C#N)c(Nc3ccc(C)c(O)c3)c2cc1OCCCN1CCOCC1 [Example 128],–,–,IC50 [2]: 17.8 µM
"CCOc1cc2ncc(C#N)c(Nc3cccc(Br)c3)c2cc1NC(=O)C=CCN1CCOCC1 [Example 218, 4-Morpholin-4-yl-but-2-enoic acid [4-(3-bromo-phenylamino)-3-cyano-7-ethoxy-quinolin-6-yl]-amide]",–,> 55.9 µM,"IC50 (SKBR3; SK-BR-3, 48 h, read-out: IC50 SKBR3, cell number, Sulforhodamine B, 48 hours exposure): 0.029 µg/mL; IC50 SKBR3 (SKBR3; [5]): 0.047 µg/mL; IC50 (SW620; read-out: IC50 SW620, cell number, Sulforhodamine B, 48 hours exposure): 1.85 µg/mL; IC50 SW620 (SW620; [5]): 1.235 µg/mL"
"COc1cc2ncc(C#N)c(Nc3ccc(C)c(O)c3)c2cc1OC [Example 229, 4-(3-Hydroxy-4-methyl-phenylamino)-6,7-dimethoxy-quinoline-3-carbonitrile]",< 1 µM,0.596 µM,IC50 (SKBR3; [6]): > 5 µg/mL; IC50 (SW620; [7]): > 5 µg/mL; IC50 (A431): 0.469 µg/mL
"COc1cc2c(Nc3cccc(N(C)C)c3)c(C#N)cnc2c(OC)c1OC [Example 232, 4-(3-Dimethylamino-phenylamino)-6.7.8-trimethoxy-quinoline-3-carbonitrile]",–,> 79.3 µM,–
"COc1cc2c(Nc3ccc(C)c(O)c3)c(C#N)cnc2c(OC)c1OC [Example 233, 4-(3-Hydroxy-4-methyl-phenylamino)-6,7,8-trimethoxy-quinoline-3-carbonitrile]",80 µM,> 82.1 µM,–
"COc1cc2c(Nc3ccc(Cl)cc3F)c(C#N)cnc2c(OC)c1OC [Example 234, 4-(4-Chloro-2-fluoro-phenylamino)-6,7,8-trimethoxy-quinoline-3-carbonitrile]",> 100 µM,> 77.4 µM,–
"COc1ccc(OC)c2c(Nc3ccc(C)c(O)c3)c(C#N)cnc12 [Example 239, 4-(3-Hydroxy-4-methyl-phenylamino)-5,8-dimethoxy-quinoline-3-carbonitrile]",> 100 µM,> 89.5 µM,–
"COc1ccc(OC)c2c(Nc3cccc(Br)c3)c(C#N)cnc12 [Example 240, 4-(3-Bromo-phenylamino)-5.8-dimethoxy-quinoline-3-carbonitrile]",10 µM,> 78.1 µM,–
"COc1ccc(OC)c2c(Nc3cccc(N(C)C)c3)c(C#N)cnc12 [Example 242, 4-(3-Dimethylamino-phenylamino)-5,8-dimethoxy-quinoline-3-carbonitrile]",10 µM,> 86.1 µM,–
"COc1ccc(OC)c2c(Nc3cc(O)c(Cl)cc3F)c(C#N)cnc12 [Example 243, 4-(4-Chloro-2-fluoro-5-hydroxy-phenylamino)-5,8-dimethoxy-quinoline-3-carbonitrile]",> 100 µM,> 80.3 µM,–
"COc1cc2ncc(C#N)c(Nc3ccc(O)c(Cl)c3)c2cc1OC [Example 249, 4-(3-Chloro-4-hydroxy-phenylamino)-6,7-dimethoxy-quinoline-3-carbonitrile]",15 µM,> 28.1 µM,–
"COc1cc2ncc(C#N)c(Nc3ccccc3SC)c2cc1OC [Example 250, 6,7-Dimethoxy-4-(2-methylsulfanyl-phenylamino)-quinoline-3-carbonitrile]",10 µM,> 28.5 µM,–
"COc1cccc2c(Nc3ccc(Cl)cc3F)c(C#N)cnc12 [Example 275, 4-(4-Chloro-2-fluoro-phenylamino)-8-methoxy-quinoline-3-carbonitrile]",> 100 µM,> 91.5 µM,–
"COc1cccc2c(Nc3cccc(N(C)C)c3)c(C#N)cnc12 [Example 277, 4-(3-Dimethylamino-phenylamino)-8-methoxy-quinoline-3-carbonitrile]",> 100 µM,> 94.2 µM,–
"COc1cccc2c(Nc3ccc(Br)c(O)c3)c(C#N)cnc12 [Example 278, 4-(4-Bromo-3-hydroxy-phenylamino)-8-methoxy-quinoline-3-carbonitrile]",> 100 µM,> 81 µM,–
"COc1ccc(Nc2c(C#N)cnc3c(OC)cccc23)cc1O [Example 279, 4-(3-Hydroxy-4-methoxy-phenylamino)-8-methoxy-quinoline-3-carbonitrile]",> 100 µM,> 93.4 µM,–
"COc1cccc2c(Nc3c(F)cc(F)cc3F)c(C#N)cnc12 [Example 280, 8-Methoxy-4-(2,4,6-trifluoro-phenylamino)-quinoline-3-carbonitrile]",> 100 µM,> 91.1 µM,–
"COc1cc2ncc(C#N)c(Nc3cc(Cl)ccc3O)c2cc1OC [Example 290, 4-(5-Chloro-2-hydroxy-phenylamino)-6,7-dimethoxy-quinoline-3-carbonitrile]",3 µM,28.1 µM,–
"COc1cc2ncc(C#N)c(Nc3cc(Br)c(O)c(Br)c3)c2cc1OC [Example 291, 4-(3,5-Dibromo-4-hydroxy-phenylamino)-6,7-dimethoxy-quinoline-3-carbonitrile]",> 100 µM,20.9 µM,–
"COc1cc2ncc(C#N)c(Nc3cc(C)ccc3O)c2cc1OC [Example 295, 4-(2-Hydroxy-5-methyl-phenylamino)-6,7-dimethoxy-quinoline-3-carbonitrile]",50 µM,29.8 µM,–
"COCC#CC(=O)Nc1ccc2ncc(C#N)c(Nc3cccc(Br)c3)c2c1 [Example 330, N-[4-[(3-Bromophenyl)amino]-3-cyano-6-quinoliny]-4-methoxy-2-butynamide]",> 100 µM,–,IC50 [3]: 0.00028 µM; IC50 (SKBR3; [6]): 0.23 µg/mL; IC50 (MCF7): 0.36 µg/mL; IC50 (SW620; [7]): 0.02 µg/mL; IC50 (LOX): 0.02 µg/mL; IC50 (A431): 0.05 µg/mL
N#Cc1cnc2ccc(NC(=O)C#CCO)cc2c1Nc1cccc(Br)c1 [Example 332],25 µM and < 50 µM,–,IC50 [3]: 0.0009 µM; IC50 (SKBR3; [6]): 0.08 µg/mL; IC50 (MCF7): 54.9 µg/mL; IC50 (SW620; [7]): 0.44 µg/mL; IC50 (LOX): 0.51 µg/mL; IC50 (A431): 0.6 µg/mL
"N#Cc1cnc2ccc(NCCCN3CCCC3)cc2c1Nc1cccc(Br)c1 [Example 358, 4-(3-Bromo-phenylamino)-6-(3-pyrrolidin-1-yl-propylamino)-quinoline-3-carbonitrile]",18 µM,–,IC50 [3]: 0.1 µM; IC50 (SKBR3; [6]): 0.7 µg/mL; IC50 (MCF7): 7.8 µg/mL; IC50 (SW620; [7]): 4.1 µg/mL; IC50 (LOX): 2.5 µg/mL; IC50 (A431): 0.5 µg/mL
"CSc1cccc(Nc2c(C#N)cnc3ccc(N)cc23)c1 [Example 363, 6-Amino-4-[(3-methylsulfanylphenyl)amino]-3-quinolinecarbonitrile]",25 µM,–,IC50 [3]: 0.1 µM; IC50 (SKBR3; [6]): 0.06 µg/mL; IC50 (MCF7): 0.8 µg/mL; IC50 (SW620; [7]): 0.08 µg/mL; IC50 (LOX): 0.08 µg/mL; IC50 (A431): 0.07 µg/mL
